“And” between values parts separate entries of the source, which are not always exact repeats. Equal entries are not always repeated. Structures can show the parent of a compound that is named as a salt. Numbered stars: 1 amine (or outer) side, 2 acyl side, 3 side chain; on linkers, the order of the positions; unused ones are H or OH. Bridge positions count the residues as written; N and C are the ends. Square brackets hold non-standard residues; d marks the D form. Peptide text beside a SMILES is read from it. ξ: configuration not given here. X1 = CC[C@H](CCC[C@@H](O)[C@@H](C)C(=O)O[C@H](C)[C@@H](C)C/C=C(C)\C(=C/C(=O)[*:1])OC)O[*:2]; NMeξIle = CC[C@H](C)C(NC)C(=O)O; NMeV = CN[C@H](C(=O)O)C(C)C; NMeS = CN[C@@H](CO)C(=O)O Bounds are passed on as bounds.

One assay has as its target T1, Protein skinhead-1 (Caenorhabditis elegans, UniProt P34707).
T1 sequence (P34707 whole entry): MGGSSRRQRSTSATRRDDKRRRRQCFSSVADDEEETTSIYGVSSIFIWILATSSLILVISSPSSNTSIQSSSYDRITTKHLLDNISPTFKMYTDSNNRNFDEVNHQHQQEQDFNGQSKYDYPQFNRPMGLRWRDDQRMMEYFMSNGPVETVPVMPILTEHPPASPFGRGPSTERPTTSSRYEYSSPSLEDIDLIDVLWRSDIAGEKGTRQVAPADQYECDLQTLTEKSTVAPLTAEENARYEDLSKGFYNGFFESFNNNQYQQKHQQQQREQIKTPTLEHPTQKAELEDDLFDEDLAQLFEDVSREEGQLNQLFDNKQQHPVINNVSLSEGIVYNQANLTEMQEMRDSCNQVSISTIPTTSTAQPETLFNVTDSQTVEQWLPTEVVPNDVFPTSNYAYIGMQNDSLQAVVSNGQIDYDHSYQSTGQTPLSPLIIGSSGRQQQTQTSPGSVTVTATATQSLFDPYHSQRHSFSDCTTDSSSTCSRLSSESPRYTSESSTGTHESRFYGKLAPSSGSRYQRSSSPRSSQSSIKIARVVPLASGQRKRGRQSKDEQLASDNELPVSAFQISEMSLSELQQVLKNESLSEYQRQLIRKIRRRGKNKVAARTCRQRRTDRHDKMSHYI
Conditions: not given
Consider `O=C(CC=Nc1ccc(Br)cc1F)c1ccco1` [SMR000293180], for which the half-maximal inhibitory concentration (IC50) (usually the concentration that gives 50% inhibition) came to 2.19 µM. As for `O=C1C2=CCC=CC2Oc2ccc(Br)cc21` (stereo unspecified) [SMR000327218], the IC50 was > 100 µM. Regarding `O=C(CC=Nc1ccccn1)c1ccccc1` [(Z)-1-phenyl-3-(pyridin-2-ylamino)prop-2-en-1-one], it took 53.7 µM to reach half-maximal inhibition (IC50).

On to `O=C(CC=Nc1cccc(F)c1)c1cccs1`, for which the IC50 amounted to 46.7 µM. The compound `O=C(c1ccco1)C(C=Nc1ccc(Br)cc1)C(=O)C(F)(F)F` (stereo unspecified) [2-{[(4-bromophenyl)amino]methylene}-4,4,4-trifluoro-1-(2-furyl)-1,3-butanedione] registered an IC50 of 21 µM. In the case of `O=C(CC=Nc1ccc(Br)cc1)c1cccnc1` [SMR000225438], half-maximal inhibition (IC50) required 68.9 µM. This IC50 is about 3.3-fold higher than that of the compound before. In turn, `O=C1C=CC(=O)c2c(O)c(N3CCN(CCOCCO)CC3)c(Br)c(O)c21` [6-bromo-5,8-dihydroxy-7-[4-[2-(2-hydroxyethoxy)ethyl]piperazin-1-yl]naphthalene-1,4-dione;hydrochloride] displayed a half-inhibitory concentration (IC50) of 75.5 µM. The IC50 values of the last two compounds are within 1.5-fold of each other.

`O=C(CC=Nc1ccc(F)cc1F)c1ccco1` [(E)-3-(2,4-difluoroanilino)-1-(2-furanyl)-2-propen-1-one] showed an IC50 of 22.7 µM.

Turning to `C=c1[nH]n(-c2ccccc2)c(=O)c1=CC=C1N(C)c2ccccc2C1(C)C` [SMR000175131], the IC50 is 87.3 µM and 14.4 µM. In the case of `Cc1cc(C)c2ccc3c(C)c(C)[nH]c3c2n1` [MLS000729064], the IC50 is 41.1 µM. `COC(=O)c1cc(=O)nc2sccn12`: the IC50 was 21.9 µM. Against the preceding compound, the IC50 is about 1.9-fold lower. The compound `O=C(CC=Nc1ccc(F)cc1F)c1cccs1` [(E)-3-[[2,4-bis(fluoranyl)phenyl]amino]-1-thiophen-2-yl-prop-2-en-1-one] came in with an IC50 of 5.04 µM. The compound `CCOC(=O)c1c(C)oc2c(F)c(F)c(F)c(F)c2c1=O` [SMR000041624] showed an IC50 of 45.5 µM. In turn, `Cc1ccc(N=CCC(=O)c2cccs2)cc1` [3-[(4-methylphenyl)amino]-1-(2-thienyl)-2-propen-1-one] returned a half-maximal inhibitory concentration (IC50) of 60.3 µM. `CC[C@@H]1CCC[C@@H](O)[C@@H](C)C(=O)O[C@H](C)[C@@H](C)C/C=C(C)\C(OC)=C/C(=O)N(C)C([C@@H](C)CC)C(=O)N(C)[C@@H](C(C)C)C(=O)N(C)[C@@H](COC)C(=O)N2CCC[C@H]2C(=O)N(C)[C@@H](C(C)C)C(=O)N2CCC[C@H]2C(=O)O1` (stereo partly specified) [MLS003235796] ([NMeξIle][NMeV][NMeS](Me)P[NMeV]P; linker N-C via X1) had an IC50 of 82.4 µM. `Nc1ccc(/C=C2\C=Cc3ccccc32)cc1` yielded an IC50 of 45 µM. Regarding `Cc1ccc(Cl)c(N=CCC(=O)c2ccccc2)c1` [(E)-3-[(2-chloranyl-5-methyl-phenyl)amino]-1-phenyl-prop-2-en-1-one], the IC50 is 68.8 µM. This IC50 lies about 1.5-fold higher than the previous one. For `Cc1ccc2nc(-c3cccnc3)c(NC3CCCCC3)n2c1`, the IC50 was determined as 23.5 µM. Take `O=C(C=Cc1ccc(Br)cc1)c1ccc(N=C2NCCCS2)cc1` [MLS000391412]: the IC50 was found to be 18.3 µM. Same read-out and setting: the figure for `O=C(/N=C1\[N-]c2ccc(Br)c[n+]2Cc2ccccc21)c1ccc([N+](=O)[O-])cc1[N+](=O)[O-]` [N-(2-bromanyl-11H-pyrido[1,2-b][2,4]benzodiazepin-6-ylidene)-2,4-dinitro-benzamide] is 2.78 µM; for `COC(=O)[C@]12OC[C@]34[C@H]([C@@H](O)[C@@H]1O)[C@@]1(C)CC(=O)C(=O)C(C)[C@@H]1C[C@H]3OC(=O)[C@H](OC(=O)/C=C(\C)C(C)C)[C@@H]24` (stereo partly drawn) [10,15,16-trihydroxy-9,13-dimethyl-17-methyloxycarbonyl-4,11-dioxo-(1R,2S,3R,6R,8R,13S,14R,15R,16S,17R)-5,18-dioxapentacyclo[12.5.0.01,6.02,17.08,13]nonadec-9-en-3-yl 3,4-dimethyl-(E)-2-pentenoate] it is 75.3 µM; for `CN(C)c1ccc(N=CCC(=O)c2ccco2)cc1` it is 70.5 µM. Compound `O=C(CC=Nc1ccc(F)c(Cl)c1)c1ccco1` [(E)-3-(3-chloro-4-fluoroanilino)-1-(furan-2-yl)prop-2-en-1-one] gave a half-maximal inhibitory concentration (IC50) of 16.7 µM. This IC50 is about 4.2-fold lower than that of the compound before.

`O=C1N[C@@H]2C(=C[C@H](O)[C@@H](O)[C@H]2O)c2cc3c(c(O)c21)OCO3` [(2S,3R,4S,4aR)-2,3,4,7-Tetrahydroxy-3,4,4a,5-tetrahydro-2H-[1,3]dioxolo[4,5-j]phenanthridin-6-one] registered an IC50 of 51.4 µM. In turn, `O=C(CC=Nc1ccc(F)c(F)c1)c1cccs1` [3-[(3,4-difluorophenyl)amino]-1-(2-thienyl)-2-propen-1-one] gave an IC50 of 11.4 µM. Regarding `CC1CCCCN1Cc1c(O)ccc2c(=O)c(-c3nc4ccccc4s3)c(N)oc12` (stereo unspecified) [SMR000218869], the IC50 was found to be 6.82 µM. This IC50 is about 1.7-fold lower than that of the compound before.

With `Cc1ccc(N=CC(C(=O)c2ccco2)C(=O)C(F)(F)F)cc1Cl` (stereo unspecified) [2-{[(3-chloro-4-methylphenyl)amino]methylene}-4,4,4-trifluoro-1-(2-furyl)-1,3-butanedione], the midpoint of inhibition, the IC50, lay at 14.3 µM.

`O=C(CC=Nc1ccccc1F)c1cccs1` [(E)-3-[(2-fluorophenyl)amino]-1-thiophen-2-yl-prop-2-en-1-one] registered an IC50 of 27.9 µM. Take `O=C1/C(=C/c2ccccn2)CCc2ccccc21`: the IC50 stood at 78.5 µM.

The same assay, now with this note: inactive by the depositor's call.
Turning to `Cc1cccc(C=CC(=O)c2ccc(N=C3NCCCS3)cc2)c1` [(E)-1-[4-(5,6-dihydro-4H-1,3-thiazin-2-ylamino)phenyl]-3-(3-methylphenyl)prop-2-en-1-one], the IC50 amounted to 79.9 µM.

For the compound `Cn1ccs/c1=N/C(=O)c1ccc(OC(F)(F)F)cc1` [SMR000589314], the IC50 amounted to 61.9 µM.

These data come from BindingDB's records for doi:10.7270/Q2DV1HH8 (Burnham Center For Chemical Genomics, 2012).
